Where a chain is given by its changes, count along the chain named.
What was measured:
[1] = target: T1, ALK2 (R206H) (Homo sapiens, UniProt Q04771, R206H); test: Kinase assay (33P-ATP filter-binding), ALK2 R206H; type: biochemical; details: R206H mutant, 20 mM; read-out: Kinase Selectivity ALK2 (R206H, 20 mM)
T1 sequence (Q04771 21-509 R206H): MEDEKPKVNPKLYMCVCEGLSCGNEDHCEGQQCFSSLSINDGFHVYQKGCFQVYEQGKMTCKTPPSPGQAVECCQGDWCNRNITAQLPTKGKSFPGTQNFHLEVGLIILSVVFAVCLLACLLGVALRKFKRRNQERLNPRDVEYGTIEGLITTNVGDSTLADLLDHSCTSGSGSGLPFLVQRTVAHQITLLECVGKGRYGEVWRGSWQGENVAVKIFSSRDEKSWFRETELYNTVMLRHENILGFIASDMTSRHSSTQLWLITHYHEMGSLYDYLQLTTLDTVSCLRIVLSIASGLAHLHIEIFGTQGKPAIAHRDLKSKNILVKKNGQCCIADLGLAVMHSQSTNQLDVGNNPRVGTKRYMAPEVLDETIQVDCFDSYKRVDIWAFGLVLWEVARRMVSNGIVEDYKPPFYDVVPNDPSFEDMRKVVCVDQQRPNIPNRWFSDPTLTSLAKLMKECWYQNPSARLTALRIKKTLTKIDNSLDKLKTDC
Procedure: (§1) The kinase assays were carried out briefly as follows. Substrate was prepared in Base Reaction Buffer (20 mM Hepes (pH 7.5), 10 mM MgCl2, 1 mM EGTA, 0.02% Brij35, 0.02 mg/ml BSA, 0.1 mM Na3VO4, 2 mM DTT, 1% DMSO). The indicated kinases was delivered into the substrate solution and allowed to gently mix. Next, the specific compound was delivered in DMSO into the kinase mixture by Acoustic technology (Echo550; nanoliter range), and allowed to incubate for 20 minutes at room temperature. Next, ^33P-ATP was delivered into the reaction mixture to initiate the reaction and allowed to incubate at room temperature. After 2 hours, the reactions were spotted onto P81 ion exchange paper and the kinase activity is detected by the filter-binding method.

[2] = tested on: BMP-responsive C2C12 mouse myoblast cells stimulated with BMP4; test: BMP4 cell assay (Id1 promoter-firefly luciferase reporter); type: cell-based; details: Mus musculus; C2C12 cells, BMP4 50 ng/mL, overnight
Procedure: The BMP4 cell assay were carried out briefly as follows. Stably transfected BMP-responsive C2C12 mouse myoblast cells (containing the Idl promoter-firefly luciferase reporter) were seeded in 96-well plates and incubated overnight with the compounds and BMP4 (50 ng/mL). The cells were then lysed, and cell extracts were then subjected to the firefly luciferase assay using Steady-Glo luciferase assay kit (Promega). The results were normalized to cell titers, as measured using Cell Titer-Glo luminescence assay (Promega). […] Relative activity was quantified by the ratio of firefly to Renilla luciferase activities using the dual luciferase assay kit (Promega).

[3] = target: caALK1 (Homo sapiens, UniProt P37023); test: Subtype analysis, constitutively active caALK1; type: cell-based; details: Primary In Vitro Data, constitutively active ALK1
caALK1, sequence (P37023 whole entry Q201D, form open): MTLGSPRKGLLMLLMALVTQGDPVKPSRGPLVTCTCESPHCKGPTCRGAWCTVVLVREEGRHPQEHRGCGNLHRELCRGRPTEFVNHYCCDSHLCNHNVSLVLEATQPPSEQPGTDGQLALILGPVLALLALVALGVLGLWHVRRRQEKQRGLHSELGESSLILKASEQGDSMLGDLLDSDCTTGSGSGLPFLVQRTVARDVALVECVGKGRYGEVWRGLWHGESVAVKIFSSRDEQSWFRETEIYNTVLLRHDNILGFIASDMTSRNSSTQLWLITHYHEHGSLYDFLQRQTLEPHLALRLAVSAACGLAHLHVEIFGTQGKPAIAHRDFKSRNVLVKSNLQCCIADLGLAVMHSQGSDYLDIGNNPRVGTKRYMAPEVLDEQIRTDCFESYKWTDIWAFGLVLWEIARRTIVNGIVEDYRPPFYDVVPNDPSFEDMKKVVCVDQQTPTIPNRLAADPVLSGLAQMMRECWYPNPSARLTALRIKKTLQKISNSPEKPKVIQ

[4] = target: ALK1/ACVRL1 (Homo sapiens, UniProt P37023); test: Kinase assay (33P-ATP filter-binding), ALK1; type: biochemical; details: read-out: Kinase Selectivity ALK1/ACVRL1
ALK1/ACVRL1, sequence (P37023 22-503): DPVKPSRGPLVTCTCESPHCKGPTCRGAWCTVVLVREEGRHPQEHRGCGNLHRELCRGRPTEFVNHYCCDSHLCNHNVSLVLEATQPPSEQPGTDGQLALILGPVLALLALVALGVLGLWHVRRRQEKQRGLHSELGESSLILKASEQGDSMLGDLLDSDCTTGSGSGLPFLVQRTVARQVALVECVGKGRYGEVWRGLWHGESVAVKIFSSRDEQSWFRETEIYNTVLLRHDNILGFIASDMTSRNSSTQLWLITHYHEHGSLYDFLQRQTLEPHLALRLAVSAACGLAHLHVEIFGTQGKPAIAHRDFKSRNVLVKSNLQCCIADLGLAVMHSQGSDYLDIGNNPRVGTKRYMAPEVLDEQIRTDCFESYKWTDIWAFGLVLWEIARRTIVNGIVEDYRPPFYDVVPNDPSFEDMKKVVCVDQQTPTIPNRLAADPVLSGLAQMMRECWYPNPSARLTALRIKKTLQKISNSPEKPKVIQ
Method in brief: (§2)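 Substrate in pH 7.5 HEPES buffer (10 mM MgCl2, 1 mM EGTA, 2 mM DTT, 0.1 mM Na3VO4, 1% DMSO); compound preincubated with kinase 20 min at room temperature. Reaction started with 33P-ATP, run 2 h at room temperature; activity measured by P81 filter binding.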

[5] = target: ALK3/BMPR1A (Homo sapiens, UniProt P36894); test: Kinase assay (33P-ATP filter-binding), ALK3; type: biochemical; details: 1 mM; read-out: Kinase Selectivity ALK3/BMPR1A (1 mM)
ALK3/BMPR1A, sequence (P36894 24-532): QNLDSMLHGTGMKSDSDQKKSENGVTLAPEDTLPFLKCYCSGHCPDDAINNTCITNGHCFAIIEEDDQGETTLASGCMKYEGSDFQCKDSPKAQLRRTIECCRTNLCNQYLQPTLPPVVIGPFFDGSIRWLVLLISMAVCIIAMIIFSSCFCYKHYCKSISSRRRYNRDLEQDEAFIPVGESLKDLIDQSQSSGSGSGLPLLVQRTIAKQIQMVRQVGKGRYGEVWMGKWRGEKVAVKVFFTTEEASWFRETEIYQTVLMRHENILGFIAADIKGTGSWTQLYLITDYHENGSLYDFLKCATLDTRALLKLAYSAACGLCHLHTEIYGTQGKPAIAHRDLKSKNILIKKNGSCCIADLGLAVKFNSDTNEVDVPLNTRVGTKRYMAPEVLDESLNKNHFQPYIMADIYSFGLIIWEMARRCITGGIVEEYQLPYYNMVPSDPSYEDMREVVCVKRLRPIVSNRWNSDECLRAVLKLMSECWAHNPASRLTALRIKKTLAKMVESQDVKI
Method in brief: as §2

[6] = target: T2, ALK2/ACVR1 (Homo sapiens, UniProt Q04771); test: Kinase assay (33P-ATP filter-binding), ALK2; type: biochemical; details: 20 mM; read-out: Kinase Selectivity ALK2/ACVR1 (20 mM)
T2 sequence (Q04771 21-509): T1 sequence (Q04771 21-509 R206H) with H186R
Procedure: as §1

[7] = target: T3, ALK2 (Q207D) (Homo sapiens, UniProt Q04771, Q207D); test: Kinase assay (33P-ATP filter-binding), ALK2 Q207D; type: biochemical; details: Q207D mutant, 20 mM; read-out: Kinase Selectivity ALK2 (Q207D, 20 mM)
T3 sequence (Q04771 21-509 Q207D): T1 sequence (Q04771 21-509 R206H) with H186R, Q187D
Procedure: as §1

[8] = target: T4, caALK2 (Homo sapiens, UniProt Q04771, Q207D); test: Subtype analysis, C2C12BRA cells transfected with constitutively active caALK2; type: cell-based; details: Primary In Vitro Data, constitutively active ALK2
T4 construct: expressed in transfected cells; host or cells: C2C12BRA cells (mouse myoblast, BMP-responsive reporter)
T4 sequence (Q04771 21-509 Q207D): T1 sequence (Q04771 21-509 R206H) with H186R, Q187D
Procedure: The BMP4 cell assay were carried out briefly as follows. Stably transfected BMP-responsive C2C12 mouse myoblast cells (containing the Idl promoter-firefly luciferase reporter) were seeded in 96-well plates and incubated overnight with the compounds and BMP4 (50 ng/mL). The cells were then lysed, and cell extracts were then subjected to the firefly luciferase assay using Steady-Glo luciferase assay kit (Promega). The results were normalized to cell titers, as measured using Cell Titer-Glo luminescence assay (Promega). For subtype analysis, C2C12BRA cells were transiently transfected with plasmids (0.1 μg) expressing constitutively active forms of the BMP type I receptors (caALK2, caALK3 or caALK6) using Lipofectamine kit (Invitrogen) in 96 well plates; 0.1 μg of pRL-TK Renilla luciferase (Promega) was used to control for transfection efficiency. Relative activity was quantified by the ratio of firefly to Renilla luciferase activities using the dual luciferase assay kit (Promega).

Row | IC50 [1] [nM] | IC50 [2] [nM] | IC50 [3] [nM] | IC50 [4] [nM] | IC50 [5] [nM] | IC50 [6] [nM] | IC50 [7] [nM] | IC50 [8] [nM] | SMILES
1 | 105 | 66 | 189 | 1200 | < 5.08 | 114 | 79.1 | 44 | Cc1cc(-c2cnc3cc(-c4ccc(N5CCN(C)CC5)cc4)ccn23)c2cccnc2n1 [Compound 28]
2 | 88.2 | 112 | 178 | 767 | 17.4 | 84.9 | 77.6 | 16 | CN1CCN(c2ccc(-c3ccn4c(-c5ccnc6ncccc56)cnc4c3)cc2)CC1 [Compound 29]

From patent US10745400B2, “Inhibition of BMP signaling, compounds, compositions and uses thereof” (Vanderbilt University, priority 2018, dated 2020)
